According to US10738074B2, “Cyclic di-nucleotide compounds as STING agonists” (Merck Sharp & Dohme Corp., priority 2015, dated 2020):

Key:
full-length HAQ STING = full-length HAQ STING (Homo sapiens (Human), UniProt Q86WV6, G230A/H232R/R293Q/R71H); assay: 3H-cGAMP filtration binding assay (HAQ STING); conditions: competition with tritiated cGAMP, HAQ STING membrane
Description: (§1) The ability of compounds to bind STING is quantified by the ability to compete with tritiated cGAMP ligand for human STING receptor membrane using a radioactive filter-binding assay. The binding assay employs STING receptor obtained from Hi-Five cell membranes overexpressing full-length HAQ STING prepared in-house and tritiated cGAMP ligand also purified in-house.
as §1, with “their” for “the”, “Trichoplusia ni” for “Hi-Five”, “membranes (Tni; Expression Systems, cat #94-002F, www.exrpressionsystems.com)” for “membranes”
The basic HAQ STING filtration assay protocol is as follows:
Compound and membrane then preincubated for 60 min at RT to allow compound binding to equilibrate. Following equilibration, 8 nM of [^3H] c-GAMP ligand was prepared by diluting into assay buffer, and 50 uL of this working stock was then manually added to each well of the assay plate. […] The filter plates were then dried at 55° C. for 30 min using a pressurized VWR oven before 30 uL of Ultima GoldF scintillate was added to each well. Tritium levels for each reaction well were then measured using a PerkinElmer TopCount plate reader.
(§2) After normalization to controls, the percent activity for each compound concentration was calculated by measuring the amount of remaining radioactivity. The plot of percent activity versus the log of compound concentration was fit with a 4-parameter dose response equation to calculate EC50 values.

full-length WT STING = full-length WT STING (Homo sapiens (Human), UniProt Q86WV6, H232R); assay: 3H-cGAMP filtration binding assay (WT STING); conditions: competition with tritiated cGAMP, WT STING membrane
Chain of full-length WT STING (Q86WV6 other isoform, or with tags, fused parts or gaps H232R (already in the parent)): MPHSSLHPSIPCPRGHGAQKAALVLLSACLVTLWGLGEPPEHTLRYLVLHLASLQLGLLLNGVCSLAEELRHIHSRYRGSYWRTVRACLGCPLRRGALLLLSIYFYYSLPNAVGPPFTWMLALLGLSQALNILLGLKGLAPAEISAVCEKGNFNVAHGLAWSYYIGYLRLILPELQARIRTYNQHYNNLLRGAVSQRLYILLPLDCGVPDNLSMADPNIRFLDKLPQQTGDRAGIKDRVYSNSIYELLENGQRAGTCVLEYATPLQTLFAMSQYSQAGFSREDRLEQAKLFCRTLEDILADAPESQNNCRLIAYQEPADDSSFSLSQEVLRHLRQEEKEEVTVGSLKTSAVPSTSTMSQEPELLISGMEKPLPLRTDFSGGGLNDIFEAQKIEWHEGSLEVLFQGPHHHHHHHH
Description: as §1, with “their” for “the”, “Trichoplusia ni” for “Hi-Five”, “membranes (Tni; Expression Systems, cat #94-002F, www.expressionsystems.com)” for “membranes”, “WT” for “HAQ”
The basic WT STING filtration assay protocol is as follows:
The filter plates were then dried at 55° C. for 30 min using a pressurized VWR oven before 30 uL of Ultima GoldF scintillate was added to each well. Tritium levels for each reaction well were then measured using a PerkinElmer TopCount plate reader.
as §2

THP1 cells = assay: IFN-β secretion in THP1 cell culture (5 h); assay type: cell-based, human; conditions: IFN-β secretion, THP1 cells, 5 h, 30 μM
Method: The ability of compounds to stimulate the secretion of interferon-beta from THP1 cells was measured using a human IFN-β AlphaLISA kit (Perkin Elmer, Cat. No. AL265F). The basic protocol is as follows:
A Labcyte Echo 550 acoustic dispenser was used to transfer 120 nL of compound dissolved in DMSO into the wells of an empty, sterile 384-well microplate, (Corning, Cat. No. 3712). THP1 cells (American Type Culture Collection, Cat. No. TIB202) previously frozen in Recovery Medium (Life Technologies, Cat. No. 12648-010) were thawed and immediately diluted 10-fold into 37° C. assay medium (RPMI 1640+L-Glutamine & phenol red, Life Technologies, Cat. No. 11875-085; 0.5% heat inactivated fetal bovine serum, Sigma Aldrich, Cat. No. F4135; 1 mM Sodium Pyruvate, Life Technologies, Cat. No. 11360-070; lx non-essential amino acids; Life Technologies, Cat. No. 11140-050). The cell viability and count was ascertained using a Beckman Coulter V-Cell XR cell counter. The cells suspension was centrifuged at 200×g for 5 min at RT. Cells were resuspended to a density of 0.8×10^6/mL in 37° C. assay medium. Subsequent liquid transfers were performed using either a Matrix electronic multichannel pipette or an Agilent Bravo Automated Liquid Handling Platform.
The assay was started by dispensing 40 μL of the previously prepared cell suspension into the wells of the plate containing compounds. After 5 h incubation at 37° C., 5% CO2 in a humidified atmosphere, the plate of cells and compounds was centrifuged at 200×g for 5 min at RT. From each well, 5 μL of supernatant was transferred into corresponding wells of a white 384-well plate (Perkin Elmer, Cat. No. 6005620). To these supernatant-containing wells was added 10 μL of 5× Anti-Analyte Acceptor beads (50 μg/mL of AlphaLISA HiBlock Buffer) and incubated for 30 min at RT while shaking on an orbital plate shaker. To each well was added 10 μL of 5× Biotinylated Antibody Anti-analyte (5 nM in AlphaLISA HiBlock Buffer) and incubated on an orbital plate shaker for 60 min at RT or overnight at 4° C. To each well was added 25 μL of 2× SA-Donor beads (80 μg/mL in AlphaLISA HiBlock Buffer) and incubated for 30-45 min at RT in the dark while shaking on an orbital plate shaker. The plate was then read on a Perkin Elmer Envision (λex=680 nm, λem=[…]). The percent effect of the AlphaLISA signal at each compound concentration was calculated based on 30 uM cGAMP positive controls and 0.3% DMSO negative controls. The plot of percent effect versus the log of compound concentration was fit with a 4-parameter concentration response equation to calculate EC50 values. The test compounds were tested at concentrations 30000, 10000, 3333, 1111, 370.4, 123.4, 41.2, 13.7, 4.6, and 1.5 nM with 0.3% residual DMSO.
Compounds of the disclosure were evaluated for IFN-β secretion in THP1 cell culture as described above. The following table tabulates the biological data for these compounds as percent activation relative to 2′3′-cGAMP at the 30 μM concentration.

Chain of full-length HAQ STING (Q86WV6 other isoform, or with tags, fused parts or gaps, stated change not applied): as the sequence (Q86WV6 other isoform, or with tags, fused parts or gaps H232R (already in the parent)) above, with R71H, G230A, R293Q counted along it

EC50 (full-length HAQ STING): < 1 nM
EC50 (full-length WT STING): < 1 nM
SMILES: Nc1nc2c(ncn2[C@H]2O[C@@H]3COP(=O)(O)O[C@@H]4[C@H](N)[C@@H](COP(=O)(O)O[C@@H]2[C@@H]3O)O[C@H]4n2cnc3c(N)ncnc32)c(=O)[nH]1 [Example 34]
% Effect at 30 μM relative to 2′3′-cGAMP (THP1 cells): 132%
